The target of assay [1] is T1, D2 I184A^EL2 mutant (Homo sapiens, UniProt P14416, I184A). Put plainly: cell-based. The class given is cell-based. The conditions noted are these: for effect of I184A mutation on β-arrestin2 recruitment: Tango. (In general: Recruitment of arrestin is a read-out of receptor activation apart from second messengers.)
Assay [2] addresses T2, D2 dopamine receptor (D2R) (Homo sapiens, UniProt P14416). Put plainly: cell-based. The conditions noted are these: for Emax: read-out: D2 Gi/o Emax, D2 wild-type, normalized to quinpirole.
For a further assay, the target named is human D2Long (Homo sapiens, UniProt P14416). The assay can be described thus: cell-based. The conditions noted are these: for Emax: read-out: D2 β-arrestin2 Emax, D2 wild-type, Tango, normalized to quinpirole.
The target of assay [3] is T2, D2 dopamine receptor (D2R). Put plainly: Bias calculation, Gi/o activity versus β-arrestin2 recruitment. The class given is cell-based. The conditions noted are these: for bias factor: arrestin recruitment over Gi/o signaling, relative to quinpirole.
In assay [4] the test system is β2AR EL2.52 F194 mutants (alanine, leucine, isoleucine). The assay can be described thus: β-arrestin2 recruitment by Tango at β2AR EL2 mutants. The class given is cell-based.
In assay [5] the target is T1, D2 I184A^EL2 mutant. Put plainly: Competitive binding kinetics with [3H] NMSP at I184A mutant.

pEC50: −log10 of the molar value. “Also recorded” adds a separate entry of the source.

T1 sequence (P14416 whole entry I184A): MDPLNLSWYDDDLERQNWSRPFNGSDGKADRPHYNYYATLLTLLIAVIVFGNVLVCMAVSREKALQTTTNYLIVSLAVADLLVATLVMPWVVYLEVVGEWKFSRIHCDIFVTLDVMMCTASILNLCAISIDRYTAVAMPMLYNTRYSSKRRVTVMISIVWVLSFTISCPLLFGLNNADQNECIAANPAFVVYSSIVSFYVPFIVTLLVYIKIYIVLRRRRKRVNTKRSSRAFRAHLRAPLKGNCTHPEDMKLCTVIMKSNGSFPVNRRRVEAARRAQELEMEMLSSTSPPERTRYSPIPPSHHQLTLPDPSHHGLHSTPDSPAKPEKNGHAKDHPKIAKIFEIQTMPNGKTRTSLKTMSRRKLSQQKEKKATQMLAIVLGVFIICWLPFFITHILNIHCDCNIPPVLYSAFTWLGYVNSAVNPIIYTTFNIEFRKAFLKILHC
Sequence of human D2Long (P14416 whole entry): as the sequence (P14416 whole entry I184A) above, with A184I counted along it
T2 sequence (P14416 whole entry): as the sequence (P14416 whole entry I184A) above, with A184I counted along it

For `O=C1CCc2ccc(OCCCCN3CCCN(c4cccc(Cl)c4Cl)CC3)nc2N1` [UNC 9975, reference compound], on D2 I184A^EL2 mutant [1], the “effect of I184A mutation on β-arrestin2 recruitment” value (from here on “effect of I184A mutation”) is given as “no change in arrestin recruitment efficacy”.

For orientation: pEC50 means −log10 of the EC50, conventionally taken in molar units. High values mean a small EC50, low ones a large EC50. For `Cc1cc2c(N3CCN(CCCCOc4ccc5c(c4)NC(=O)CC5)CC3)cccc2[nH]1` [compound 6, 7-(4-(4-(2-methyl-1H-indol-4-yl)piperazin-1-yl)butoxy)-3,4-dihydroquinolin-2(1H)-one], the pEC50 is 9.31 in assay [2], 9.21 at human D2Long and 8.57 on D2 I184A^EL2 mutant [1]. In addition, the Emax is 86% in assay [2], 78% at human D2Long and 40% at D2 I184A^EL2 mutant [1] (read-out: β-arrestin2 Emax at I184A). Also, the “effect of I184A mutation” value on D2 I184A^EL2 mutant [1] is given as “selectively abolishing; also recorded: partial but not complete loss of arrestin recruitment efficacy”. For the same compound, the “SFSR summary (signaling profile)” value in assay [3] (Gi/o versus arrestin activity) is recorded as “no preference for arrestin recruitment over G protein activation”. The bias factor in assay [3] is 1.3.

`CC(C)NC[C@H](O)c1ccc(O)c(O)c1` [isoproterenol, (−)-isoproterenol bitartrate]: the “β-arrestin2 recruitment at β2AR EL2 mutants” value in assay [4] is recorded as “substantially reduced”.

As for `Clc1cccc(C2CCN(CCCOc3ccc4scnc4c3)CC2)c1Cl` [UNC 9994, reference compound], on D2 I184A^EL2 mutant [1], the “effect of I184A mutation” value is listed as “no change in arrestin recruitment efficacy”.

On to `Cc1cc2c(N3CCN(CCCCOc4ccc5c(c4)NC(=O)CC5)CC3)cccc2n1C` [compound 7, 7-(4-(4-(1,2-Dimethyl-1H-indol-4-yl)piperazin-1-yl)butoxy)-3,4-dihydroquinolin-2(1H)-one], for which, in assay [2], the Emax was found to be 60%. In addition, the Emax at human D2Long stood at 78%. Also, the “effect of I184A mutation” value at D2 I184A^EL2 mutant [1] was “almost completely abolishes”. For the same compound, the bias factor in assay [3] is recorded as 20. In addition, on D2 I184A^EL2 mutant [5], the “increase in off-rate at I184A compared to D2R wild-type” value is 6.2 fold and the “increase in on-rate at I184A compared to D2R wild-type” value was 6.7 fold.

(Values after publication PMC5771956 (Nature chemical biology, 2017).)
